The values below are quoted from earlier work in US8022179B2 (priority 2005, dated 2011).

In this data set the test system is wrinkles. As to conditions: in vivo; cited from earlier work.

ARGIRELINE: the wrinkle reduction result is “affords wrinkle reduction in certain cases”.
